Data: the supplement of paper PMC10307832

Columns and labels:
Test in all cases: relative viability (nuclei count vs DMSO), 5 days (fraction); higher = more cells survive
HCC-44 = tested on: HCC-44
Method in brief: (§1)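 For relative viability, nuclei counts in treated wells were divided by those in vehicle wells. Lung cancer cell lines had been pin-tool dosed in 1536-well plates the day after seeding and cultured for 5 days, then fixed and stained in one step (final 0.05% Triton X-100, 1% formaldehyde, 1 ug/ml Hoechst) and imaged at 4×. Doses were one drug alone or a fixed anchor-drug dose plus five library-drug doses (not always all listed) in √10 steps, and values are duplicate-plate medians.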

NCI-H2228 = tested on: NCI-H2228
Method in brief: as §1

NCI-H2170 = tested on: NCI-H2170
Method in brief: as §1

HCC-827 = tested on: HCC-827
Method in brief: as §1

LOU-NH91 = tested on: LOU-NH91
Method in brief: as §1

NCI-H2087 = tested on: NCI-H2087
Method in brief: as §1

NCI-H1355 = tested on: NCI-H1355
Method in brief: as §1

HCC-366 = tested on: HCC-366
Method in brief: as §1

NCI-H596 = tested on: NCI-H596
Method in brief: as §1

NCI-H2342 = tested on: NCI-H2342
Method in brief: as §1

NCI-H1395 = tested on: NCI-H1395
Method in brief: as §1

NCI-H661 = tested on: NCI-H661
Method in brief: as §1

Structure (SMILES): Clc1ccc(Nc2nnc(Cc3ccncc3)c3ccccc23)cc1 [Vatalanib] + N=C(N)NC(=N)NCCc1ccccc1 [Phenformin] (partner 250 µM)
- relative viability (HCC-44; first compound 0.1265 µM): 0.257
- relative viability (HCC-44; first compound 0.4 µM): 0.0876
- relative viability (HCC-44; first compound 1.265 µM): 0.182
- relative viability (HCC-44; first compound 4 µM): 0.147
- relative viability (NCI-H2228; first compound 0.04 µM): 0.364
- relative viability (NCI-H2228; first compound 0.1265 µM): 0.317
- relative viability (NCI-H2228; first compound 0.4 µM): 0.335
- relative viability (NCI-H2228; first compound 1.265 µM): 0.366
- relative viability (NCI-H2228; first compound 4 µM): 0.322
- relative viability (NCI-H2170; first compound 0.04 µM): 0.437
- relative viability (NCI-H2170; first compound 0.1265 µM): 0.476
- relative viability (NCI-H2170; first compound 0.4 µM): 0.469
- relative viability (NCI-H2170; first compound 1.265 µM): 0.405
- relative viability (NCI-H2170; first compound 4 µM): 0.353
- relative viability (HCC-827; first compound 0.04 µM): 0.413
- relative viability (HCC-827; first compound 0.1265 µM): 0.418
- relative viability (HCC-827; first compound 0.4 µM): 0.304
- relative viability (HCC-827; first compound 1.265 µM): 0.425
- relative viability (HCC-827; first compound 4 µM): 0.378
- relative viability (LOU-NH91; first compound 0.04 µM): 0.694
- relative viability (LOU-NH91; first compound 0.1265 µM): 0.679
- relative viability (LOU-NH91; first compound 1.265 µM): 0.697
- relative viability (LOU-NH91; first compound 4 µM): 0.668
- relative viability (NCI-H2087; first compound 0.04 µM): 0.484
- relative viability (NCI-H2087; first compound 0.1265 µM): 0.404
- relative viability (NCI-H2087; first compound 0.4 µM): 0.428
- relative viability (NCI-H2087; first compound 1.265 µM): 0.461
- relative viability (NCI-H2087; first compound 4 µM): 0.541
- relative viability (NCI-H1355; first compound 0.04 µM): 0.511
- relative viability (NCI-H1355; first compound 0.1265 µM): 0.419
- relative viability (NCI-H1355; first compound 0.4 µM): 0.444
- relative viability (NCI-H1355; first compound 1.265 µM): 0.431
- relative viability (NCI-H1355; first compound 4 µM): 0.401
- relative viability (HCC-366; first compound 0.04 µM): 0.597
- relative viability (HCC-366; first compound 0.1265 µM): 0.554
- relative viability (HCC-366; first compound 0.4 µM): 0.6
- relative viability (HCC-366; first compound 1.265 µM): 0.575
- relative viability (HCC-366; first compound 4 µM): 0.547
- relative viability (NCI-H596; first compound 0.04 µM): 0.715
- relative viability (NCI-H596; first compound 0.1265 µM): 0.874
- relative viability (NCI-H596; first compound 0.4 µM): 0.769
- relative viability (NCI-H596; first compound 1.265 µM): 0.767
- relative viability (NCI-H596; first compound 4 µM): 0.662
- relative viability (NCI-H2342; first compound 0.04 µM): 0.573
- relative viability (NCI-H2342; first compound 0.1265 µM): 0.477
- relative viability (NCI-H2342; first compound 0.4 µM): 0.461
- relative viability (NCI-H2342; first compound 1.265 µM): 0.652
- relative viability (NCI-H2342; first compound 4 µM): 0.53
- relative viability (NCI-H1395; first compound 0.04 µM): 0.441
- relative viability (NCI-H1395; first compound 0.1265 µM): 0.419
- relative viability (NCI-H1395; first compound 0.4 µM): 0.437
- relative viability (NCI-H1395; first compound 1.265 µM): 0.399
- relative viability (NCI-H1395; first compound 4 µM): 0.449
- relative viability (NCI-H661; first compound 0.04 µM): 0.32
- relative viability (NCI-H661; first compound 0.1265 µM): 0.248
- relative viability (NCI-H661; first compound 0.4 µM): 0.304
- relative viability (NCI-H661; first compound 1.265 µM): 0.267
- relative viability (NCI-H661; first compound 4 µM): 0.286
